The test system of series [1] is P. aeruginosa PA14 established biofilm. The experiment in a line: Dispersion of 24 h established biofilm in flow cell, CLSM/COMSTAT. The settings on record: mean ± SEM; for biofilm biovolumes reduction: 37 °C. In kind it is cell-based, Pseudomonas aeruginosa. Here is the method:
For biofilm dispersion experiments, overnight cultures of P. aeruginosa strains were performed in LB medium at 37 °C for 18 h with shaking (180 rpm). Bacterial cells were then washed and adjusted to OD580 = 0.1 in 0.9% w/v NaCl. The bacterial suspensions were then used to form a biofilm for 24 h under hydrodynamic conditions at 37 °C. Briefly, each channel of the flow cell was inoculated with 300 µL of bacterial suspension. A 2 h attachment step was performed without flow. After 2 h, each channel was then pumped with a 2.5 mL h^–1 flow rate of LB medium during 24 h. Next, the 24 h old biofilm of P. aeruginosa was exposed for 2 h (or 30 min) to 300 µL of studied compounds (i.e., peptides, antibiotics, or a combination of peptide + antibiotics) or 300 µL of ultra‐pure distilled water (control condition), added to each channel of the flow cell and without flow. Prior to image acquisition, biofilm cultures were then rinsed with LB medium using 2.5 mL h^–1 flow rate for 15 min. Finally, biofilm cells were stained and then observed by CLSM.
The CLSM observations of biofilms were performed using a Zeiss LSM710 microscope (Carl Zeiss Microscopy, Oberkochen, Germany) using a x40 oil immersion objective. Bacteria into the biofilm were stained with 5 × 10^−6 M of SYTO9 green‐fluorescent dye (Invitrogen, Carlsbad, CA). Biofilm matrix components were stained using fluorescent dyes. To assess the eDNA relative abundance, 1 × 10^−6 M of DDAO (Invitrogen, Carlsbad, CA) was used. The polysaccharides β1‐3 and β1‐4 were labeled with CalcoFluor White M2R at 200 µg mL^−1 (Sigma‐Aldrich, USA). eDNA and polysaccharides values were normalized to biofilms’ biomass. The Live/Dead BacLight kit (Invitrogen, Carlsbad, CA) was used to examine bacterial viability in biofilms according to manufacturer instructions. Images were taken every micrometer throughout the whole biofilm depth. For visualization and processing of 3D image, the Zen 2.1 SP1 software (Carl Zeiss Microscopy, Oberkochen, Germany) was used. Quantitative analyses of images stacks were performed using the COMSTAT software (http://www.imageanalysis.dk/).^[ [77] ^] At least three image stacks from at least three independent experiments were used for each analysis.

Series [2] has as its target T1, AmiC (Pseudomonas aeruginosa, UniProt P27017). Also on record: made in house. The settings on record: cited from earlier work. An excerpt: […]; see 2.0 ± 0.3 × 10^−6 M for hCNP^[ [44] ^]). This is consistent with the van der Waals and hydrog ...
Series [3] has as its target T1, AmiC. Kind of series: biochemical.
Procedure: Briefly, AmiC protein was labeled using the RED‐NHS labeling kit (NanoTemper Technologies). The labeling reaction was performed according to the manufacturer's instructions in the supplied labeling buffer using a 20 × 10^−6 M protein concentration and a molar dye:protein ratio ≈2:1, at RT for 30 min. […] The label:protein ratio was determined using photometry at 650 and 280 nm. Typically, a ratio of 0.8 was achieved.
For thermophoresis, each ligand dilution was mixed with one volume of AmiC, which led to a final concentration of AmiC of 50 × 10^−9 M and final ligand concentrations at half of the ranges above. Instrument parameters were adjusted with 50% light‐emitting diode power and 20% MST power. Data of three independently pipetted measurements were analyzed (NT.Analysis software version 1.5.41, NanoTemper Technologies) using the signal from Thermophoresis + T‐Jump.
In series [4] the test system is human Ether-a-go-go Related Gene (hERG) channel.

Read-outs that look alike come from different tables or passages of the source.

T1 sequence (P27017 whole entry): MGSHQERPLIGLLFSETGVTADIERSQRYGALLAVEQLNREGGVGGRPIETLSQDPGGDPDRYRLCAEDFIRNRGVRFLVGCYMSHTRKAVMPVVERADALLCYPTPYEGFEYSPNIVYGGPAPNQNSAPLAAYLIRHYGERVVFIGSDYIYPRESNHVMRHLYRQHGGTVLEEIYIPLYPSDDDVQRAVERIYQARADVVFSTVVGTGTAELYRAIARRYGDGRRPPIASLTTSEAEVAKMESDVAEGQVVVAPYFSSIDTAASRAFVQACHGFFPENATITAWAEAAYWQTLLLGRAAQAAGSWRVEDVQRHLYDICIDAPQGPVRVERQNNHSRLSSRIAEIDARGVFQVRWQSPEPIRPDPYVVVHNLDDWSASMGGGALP

For polymyxin B, the biovolume reduction in series [1] (polymyxin B 4 µg mL^−1, 2 h, n = 5) is on record as 70.0 ± 4.3%.

For `NC[C@H]1O[C@H](O[C@H]2[C@H](O)[C@@H](O[C@H]3O[C@H](CO)[C@@H](O)[C@H](N)[C@H]3O)[C@H](N)C[C@@H]2N)[C@H](N)C[C@@H]1O` [tobramycin], the biofilm biovolumes reduction in series [1] (tobramycin 10 µg mL^−1, 2 h, n = 3) is 79.0 ± 4.0%; in series [1] (tobramycin 50 µg mL^−1, 2 h, n = 4), 76.6 ± 4.0%.

On to `C[C@@H](O)[C@H]1C(=O)N2C(C(=O)O)=C(SCCN=CN)C[C@H]12` [imipenem], for which the biofilm reduction in series [1] (imipenem 0.5 µg mL^−1, 2 h, n = 5) is listed as 69.8 ± 3.0%.

With Brain Natriuretic Peptide [hBNP], the “affinity for AmiC” value in series [2] is reported as “no affinity”.

Take C‐type Natriuretic Peptide [hCNP]: the Kd in series [2] (microscale thermophoresis, read-out: K D, binding to AmiC) was 2 ± 0.3 µM.

In the case of `CC[C@H](C)[C@@H]1NC(=O)[C@H](CCCNC(=N)N)NC(=O)[C@H](CC(=O)O)NC(=O)[C@H](CCSC)NC(=O)[C@H](CCCNC(=N)N)NC(=O)CNC(=O)CNC(=O)[C@H](Cc2ccccc2)NC(=O)[C@@H](NC(=O)[C@H](CO)NC(=O)[C@H](CO)NC(=O)[C@H](CCCNC(=N)N)NC(=O)[C@H](CCCNC(=N)N)NC(=O)[C@H](CC(C)C)NC(=O)[C@@H](N)CO)CSSC[C@@H](C(=O)N[C@@H](CC(N)=O)C(=O)N[C@@H](CO)C(=O)N[C@@H](Cc2ccccc2)C(=O)N[C@@H](CCCNC(=N)N)C(=O)N[C@@H](Cc2ccc(O)cc2)C(=O)O)NC(=O)CNC(=O)[C@H](CC(C)C)NC(=O)CNC(=O)[C@H](CO)NC(=O)[C@H](CCC(N)=O)NC(=O)[C@H](C)NC(=O)CNC1=O` [hANP, human Atrial Natriuretic Peptide], the Kd in series [3] is 5 ± 3 µM. For the same compound, the “hERG cardiac channel conductance” value in series [4] was “did not modify”.

Values taken from PMC8895129, “Pseudomonas aeruginosa Biofilm Dispersion by the Human Atrial Natriuretic Peptide” (Advanced Science, 2022).
